One data set concerns laser-induced CNV. The experiment in a line: Fluorescein angiography grading of leakage and CNV closure in the rat model of laser-induced CNV. The format is in vivo, Brown Norway rats. Here is the method:
(§1) Briefly, CNV membranes were induced in Brown-Norway rats using an Argon/Dye laser while either 17AAG at a total dose of approximately 2 mg or the vehicle (DMSO) was continuously administered. Verterporfin PDT was performed 14 days after CNV induction at a verterporfin dose of 3 mg/m^2, an irradiance of 600 mW/cm^2, and a fluence of 25 J/cm^2. Choroidal neovasculature closure on fluorescein angiograms was assessed 24 hours and 7 days after PDT in a masked fashion using grading standards. Retinal levels of p42/44 MAPK, HIF-1a, NF-kB, VEGF, and endostatin were assessed with a modified enzyme-linked immunoabsorbant assay (“ELISA”) method. […] The combination of 17-allylamino-17-demethoxygeldanamycin treatment and PDT treatment was also synergistic with respect to increased endostatin levels.
All experiments adhered to the Association for Research in Vision and Ophthalmology Statement for the Use of Animals in Ophthalmic and Vision Research and the guidelines established by the Animal Care Committee of the Massachusetts Eye and Ear Infirmary. Brown Norway rats (Charles River Laboratory, Wilmington, Mass.) were anesthetized via an intramuscular injection of 50 mg/kg of ketamine hydrochloride and 10 mg/kg of xylazine. Pupils were dilated with a topical application of 5% phenylephrine and 0.8% tropicamide. […]
Fluorescein angiography (“FA”) was performed 14 days after the initial laser treatment using a digital fundus camera system (model TRC 501A Topcon, Paramus, N.J.) and standard fluorescein filters to determine if CNV induction was successful. […] All angiograms were evaluated in masked fashion by two independent retina specialists using grading standards regarding severity of CNV (baseline FAs) and CNV closure (24 hours FAs).
PDT with verteporfin was performed on experimental CNV. […] The body surface area of each rat was determined based on their weight according to a nomogram developed by Gilpin (Gilpin et al. (1996) Burns 22(8): 607-1 1). […]

The test system of another data set is HIF-1a. Nature of the data set: Quantification of retinal HIF-1a activation (Trans-AM transcription factor assay on retinal nuclear extract). The data set is classed as in vivo, Brown Norway rats. How it is done:
(§2) Briefly, CNV membranes were induced in Brown-Norway rats using an Argon/Dye laser while either 17AAG at a total dose of approximately 2 mg or the vehicle (DMSO) was continuously administered. Verterporfin PDT was performed 14 days after CNV induction at a verterporfin dose of 3 mg/m^2, an irradiance of 600 mW/cm^2, and a fluence of 25 J/cm^2. Choroidal neovasculature closure on fluorescein angiograms was assessed 24 hours and 7 days after PDT in a masked fashion using grading standards. Retinal levels of p42/44 MAPK, HIF-1a, NF-kB, VEGF, and endostatin were assessed with a modified enzyme-linked immunoabsorbant assay (“ELISA”) method. […]
(§3) NF-kB and HIF-1a activation was analyzed using the Trans-AM NF-kB p65/NF-kB p50 Transcription Factor Assay Kit (Active Motif North America, Carlsbad, Calif.) according to the manufacturer's instructions. Briefly, two micrograms of a retinal nuclear extract were incubated with an oligonucleotide containing the consensus binding element for each of the transcription factors analyzed bound to a 96-well plate. […] After washes, the plates were subsequently incubated with a secondary antibody conjugated to horseradish peroxidase (1:1000), and the peroxidase reaction was quantified at 450 nm with a reference wavelength of 655 nm. […]

The next data set relates to NF-kB. The experiment in a line: Quantification of retinal NF-kB activation (Trans-AM transcription factor assay on retinal nuclear extract). The format is in vivo, Brown Norway rats. Here is the method:
as §2, §3

The subject of another data set is p42/44 MAPK. Nature of the data set: Retinal p42/44 MAPK activation (modified ELISA) in laser-induced CNV rats. The data set is classed as in vivo, Brown Norway rats. How it is done: as §1
To achieve steady drug levels in the circulation of animals, 17AAG (Calbiochem EMD Biosciences, San Diego, Calif.) or the vehicle (DMSO, Sigma, St. Louis, Mo.) was administered by slow intraperitoneal release from osmotic pumps (Alzet, Cupertino, Calif.) instead of repeated intraperitoneal injections. Immediately following the induction of choroidal neovascularization, osmotic pumps (Alzet, Cupertino, Calif.) were implanted as previously described (Poulaki et al. (2002) J. Clin. Invest. 109(6): 805-15). […]

A further data set has as its system endostatin. Nature of the data set: ELISA for retinal endostatin levels in laser-induced CNV rats. The format is in vivo, Brown Norway rats. Here is the method:
as §2
Each retina was homogenized in 100 μl of solution consisting of 20 mM imidazole hydrochloride, 100 mM KCl, 1 mM MgCl, 1 mM EGTA, 1% Triton, 10 mM NaF, 1 mM sodium molybdynate and 1 mM EDTA supplemented with a cocktail of protease inhibitors (Complete, Roche, Basel, Switzerland) prior to use. Samples were cleared by centrifugation for 10 min. at 13,000 rpm and assessed for protein concentration with the BCA assay (Micro BCA™ Protein Assay Kit, Pierce Co., Rockford, Ill.). […] The reaction was stopped, and the absorption was measured in an ELISA reader at 450 nm. […] The tissue sample concentration was calculated from a standard curve and corrected for protein concentration.

On the set-up of data set [1]: unit not given here. The conditions noted are these: typical value, general description; cited from earlier work.

As to `C=CCNC1=C2C[C@@H](C)C[C@H](OC)[C@H](O)[C@@H](C)/C=C(\C)[C@H](OC(N)=O)[C@@H](OC)/C=C\C=C(/C)C(=O)NC(=CC1=O)C2=O` [17AAG, 17-allylamino-17-demethoxygeldanamycin], in the data set on laser-induced CNV (grade IIB lesions, 17AAG in combination with verteporfin PDT, DMSO+PDT control 6 out of 17), the “lesions closed one week after PDT treatment” value is on record as 12 out of the 14. Besides, the “lesions closed one day after PDT treatment” value in the data set on laser-induced CNV (grade IIB lesions, 17AAG in combination with verteporfin PDT, DMSO+PDT control 9 out of 17) was 12 out of the 14. Besides, the “lesions showing the highest grade (IIB) of leakage” value in the data set on laser-induced CNV (two weeks following CNV induction, 17AAG approx. 2 mg by i.p. osmotic pump, without PDT, P>0.05 vs DMSO (32 out of 53)) was 26 out of 47. Besides, the “retinal levels of HIF-1a activation” value amounted to 0.946±0.06 O.D./μg tissue with HIF-1a (17AAG and PDT treated animals, 1 day after PDT, PDT without 17AAG 1.69±0.38); 1.064±0.136 O.D./μg tissue with HIF-1a (17AAG and laser treated animals without PDT, P>0.05 vs laser treated 1.06±0.1). The “retinal levels of NF-kB activation” value is 5.9±0.045 O.D./μg tissue in the data set on NF-kB (17AAG and PDT treated animals, 1 day after PDT, PDT without 17AAG 13.7±0.3); 9.54±1.47 O.D./μg tissue in the data set with NF-kB (17AAG and laser treated animals without PDT, P>0.05 vs laser treated 10.12±0.74). For the same compound, the “retinal levels of p42/44 MAPK activation” value amounted to 417±6 O.D./μg tissue in the data set with p42/44 MAPK (17AAG and PDT treated animals, 1 day after PDT, PDT without 17AAG 923±45); 560±22 O.D./μg tissue in the data set with p42/44 MAPK (17AAG and laser treated animals without PDT, P>0.05 vs laser treated 603±1). The “retinal levels of endostatin” value in the data set on endostatin (17AAG and PDT treated animals, 1 day after PDT, statistically significant vs laser treated 15.7±2.8) amounted to 258±6 O.D./μg tissue; in the data set on endostatin (17AAG and laser treated animals without PDT, P>0.05 vs laser treated 15.7±2.8) it was 32.34±6.11 O.D./μg tissue.

Take `CC(=O)[O-].CC(=O)[O-].CCc1c(CC)c2cc3nc(cnc4cc(OCCOCCOCCOC)c(OCCOCCOCCOC)cc4ncc4nc(cc1[n-]2)C(CCCO)=C4C)C(C)=C3CCCO.O.[Lu+3]` [lutetium texaphyrin]: the “time the photosensitizer persists in the target neovasculature” value (from here on “time the photosensitizer persists”) in data set [1] was “about twenty”.

Turning to `C=Cc1c(C)c2cc3nc(c(CC(=O)N[C@@H](CC(=O)O)C(=O)O)c4[nH]c(cc5nc(cc1[nH]2)C(C)=C5CC)c(C)c4C(=O)O)[C@@H](CCC(=O)O)[C@@H]3C` [N-aspartyl chlorin e6], the “time the photosensitizer persists” value in data set [1] is on record as “about twenty”.

With benzoporphyrin derivative, in data set [1], the “time the photosensitizer persists” value is recorded as “about fifty”.

Values taken from US8658633B2, “Methods and compositions for treating conditions of the eye” (Massachusetts Eye and Ear Infirmary, priority 2006, dated 2014).
